Reference: US20110172217A1, “RING-FUSED MORPHOLINE DERIVATIVE HAVING PI3K-INHIBITING ACTIVITY” (Shionogi & Co., Ltd., priority 2008, published 2011)

What was measured:
[1] = target: PI-3 kinase γ (Homo sapiens, UniProt P48736); assay: PI3Kγ inhibitory activity, PI3-kinase HTRF assay (inhibition ratio); type: biochemical; settings: 0.5 h, compound at 50 μmol/L
How it was run: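 Human PI3Kγ was preincubated 10 min with compound and PIP2 substrate, then reacted 30 min at room temperature with ATP (40 μmol/L in the added solution); EDTA/biotin-PIP3 quenched. HTRF 665/620 nm ratio read after 18 h, normalized to no-compound (100%) and no-enzyme (0%) controls, gave % inhibition at 50 or 10 μmol/L compound.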

[2] = test system: Salmonella typhimurium TA98 line, TA100 line; assay: Fat Test (mutagenicity in Salmonella typhimurium); type: cell-based; parameters: key: When the mutagenicity is negative, the compound is shown as (−); When positive, the compound is shown as (+); settings: TA98 and TA100 lines, non-metabolism-activation and metabolism-activation conditions
Description: 20 μL of Salmonella enterica subsp. typhimurium (Salmonella typhimurium TA98 line, TA100 line) cryopreserved was inoculated to 10 mL of liquid nutrient medium (2.5% Oxoid nutrient broth No. 2) and then precultured at 37° C. for 10 hours with shaking. Regarding TA98 line, after 9 mL of a bacterial suspension was centrifuged (2000×g, 10 minutes) to remove the culture solution, the bacteria was suspended in 9 mL of Micro F buffer solution (K2HPO4: 3.5 g/L, KH2PO4: 1 g/L, (NH4)2SO4: 1 g/L, tri-sodium citric acid dihydrate: 0.25 g/L, MgSO4.7H2O: 0.1 g/L), and then added to 110 mL of Exposure media (Micro F buffer solution containing biotin: 8 μg/mL, histidine: 0.2 μg/mL, glucose: 8 mg/mL). Regarding TA 100 line, 120 mL of Exposure media was added to 3.16 mL of the bacterial suspension to prepare a test bacterial suspension. 12 μL of a solution of a test substance in DMSO (diluted eight times in a common ratio of 2 from the maximum dose of 50 mg/mL); 12 μL of DMSO as a negative control; 50 μg/mL 4-nitroquinoline-1-oxide solution in DMSO for TA98 line or 0.25 μg/mL 2-(2-furyl)-3-(5-nitro-2-furyl)acrylamide solution in DMSO as a positive control for TA 100 line in the case of a non-metabolism-activation condition; 12 μL of 40 μg/mL 2-aminoanthracene solution in DMSO for TA98 line or 20 μg/mL of 2-aminoanthracene solution in DMSO for TA100 line in the case of a metabolism-activation condition; were each mixed with 588 μL of the test bacterial suspension (in the case of a metabolism activation condition, a mixed solution of 498 μL of the test bacterial suspension and 90 μL S9 mix) and then cultured at 37° C. at 90 minutes with shaking. 460 μL of the bacterial suspension to which a test substance was exposed was mixed with 2300 μL of Indicator media (a Micro F buffer solution containing 8 μg/mL biotin, 0.2 μg/mL histidine, 8 mg/mL glucose, and 37.5 μg/mL bromocresol purple). […] Thus, in 48 wells per dose, the number of the bacteria-proliferation wells in which the color changed to yellow was counted, compared with a group of negative controls, and then evaluated. […]

[3] = Solubility test in artificial intestinal juice pH 6.8; type: physicochemical; settings: kinetic from dmso stock, artificial intestinal juice pH 6.8, 1% DMSO, 25° C.
Description: The solubility of a compound was determined under a condition in which 1% DMSO was added. 10 mmol/L compound solution was prepared using DMSO, and then 6 μL of the compound solution was added to 594 μL of artificial intestinal juice in pH 6.8 (to 250 mL of 0.2 mol/L potassium dihydrogen phosphate reagent solution was added 118 mL of 0.2 mol/L NaOH reagent solution and water to provide a final volume of 1000 mL). After standing at 25° C. for 16 hours, the mixed solution was filtered with suction. The filtrate was diluted twice with methanol/water (1/1), and then a concentration in the filtration was measured with HPLC or LC/MS/MS by the absolute calibration method.

[4] = Metabolic stability test, pooled human liver microsome; type: in vitro ADME; settings: 2 μmol/L compound; human liver microsome 0.5 mg protein/mL, NADPH, 37° C.
Description: After a subject compound was reacted for a certain time using a commercially available pooled human liver microsome, a reacted sample and an unreacted sample are compared to calculate a survival ratio, and then the degree of metabolism in the liver was evaluated.
0.2 mL of a buffer solution (50 mmol/L of Tris-HCl in pH 7.4, 150 mmol/L of potassium chloride, and 10 mmol/L of magnesium chloride) containing a human liver microsome of 0.5 mg protein/mL was reacted in the presence of 1 mmol/L NADPH at 37° C. for 0 or 30 minutes (oxidative reaction). After reacting, 50 μL of the reaction solution was added to 100 μL of a solution of methanol/acetonitrile (1/1 (v/v)), mixed, and then centrifuged at 3000 rpm for 15 minutes. The test compound in the supernatant was quantitated with LC/MS/MS. The amount of the compound at a reaction time of 0 minute was defined as 100% and, based on that, the percentage of the test compound remained after reacting for 30 minutes was calculated.

[5] = target: T1, CYP2C9 (Homo sapiens, UniProt P11712); assay: CYP inhibition test, methyl-hydroxylation of tolbutamide; type: in vitro ADME; settings: pooled human liver microsome; one of 5 kinds
T1 construct: enzyme: pooled human liver microsome 0.2 mg protein/mL; from tissue; host or cells: pooled human liver microsomes
T1 sequence (P11712 whole entry): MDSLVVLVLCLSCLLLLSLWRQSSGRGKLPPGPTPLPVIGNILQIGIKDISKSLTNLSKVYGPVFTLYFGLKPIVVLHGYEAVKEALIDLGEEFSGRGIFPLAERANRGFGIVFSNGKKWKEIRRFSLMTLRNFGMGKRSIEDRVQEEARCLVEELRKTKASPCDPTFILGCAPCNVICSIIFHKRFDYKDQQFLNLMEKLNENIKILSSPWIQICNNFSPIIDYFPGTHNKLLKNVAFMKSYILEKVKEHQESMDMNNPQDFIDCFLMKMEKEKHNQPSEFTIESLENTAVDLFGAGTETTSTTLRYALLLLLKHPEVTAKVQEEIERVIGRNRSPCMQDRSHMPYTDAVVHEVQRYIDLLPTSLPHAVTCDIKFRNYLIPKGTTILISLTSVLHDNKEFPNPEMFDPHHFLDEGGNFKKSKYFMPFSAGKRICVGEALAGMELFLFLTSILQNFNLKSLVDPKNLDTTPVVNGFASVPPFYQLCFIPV
Excerpt: (§1) O-de-ethylation of 7-ethoxyresorufin (CYP1A2), methyl-hydroxylation of tolbutamide (CYP2C9), 4′-hydroxylation of mephenyloin (CYP2C19), O-demethylation of dextromethorphan (CYP2D6), and hydroxylation of terfenadine (CYP3A4), which are typical substrate for metabolic reactions of human main CYP5 molecular species (CYP1A2, 2C9, 2C19, 2D6, and 3A4), were adopted as indexes.
(§2) The reaction conditions are as follows: substrate: 0.5 μmol/L of ethoxyresorufin (CYP1A2), 100 μmol/L of tolbutamide (CYP2C9), 50 μmol/L of S-mephenyloin (CYP2C19), […] of dextromethorphan (CYP2D6), and 1 μmol/L of terfenadine (CYP3A4); reaction time; 15 minutes; reaction temperature: 37° C.; enzyme: pooled human liver microsome 0.2 mg protein/mL; test drug concentration: 1, 5, 10, and 20 μmol/L (4 points).
(§3) In a 96-well plate, as a reaction solution, five kinds of substrates, a human liver microsome, and a test drug were added to 50 mmol/L Hepes buffer solution in the aforementioned ratio. A coenzyme NADPH was added to start a metabolic reaction, which is an index. After reacting at 37° C. for 15 minutes, a solution of methanol/acetonitrile (1/1 (v/v)) was added to quench the reaction. After centrifugation at 3000 rpm for 15 minutes, resorufin (CYP1A2 metabolite) in the supernatant was quantitated with a fluorescence multilabel counter, and hydroxylated tolbutamide (CYP2C9 metabolite), 4′-hydroxylated mephenyloin (CYP2C19 metabolite), […], terfenadine in alcohol form (CYP3A4 metabolite) were quantitated with LC/MS/MS.
(§4) The case wherein only DMSO (a solvent which dissolved a drug) was added to a reaction system was defined as a control (100%). When a test drug solution was added, the remaining activity (%) at each concentration was calculated, and then IC50 was calculated with a concentration and an inhibition ratio by an inverse estimation using a logistic model.

[6] = target: T2, CYP3A4 (Homo sapiens, UniProt P08684); assay: CYP inhibition test, hydroxylation of terfenadine; type: in vitro ADME; settings: pooled human liver microsome; one of 5 kinds
T2 construct: enzyme: pooled human liver microsome 0.2 mg protein/mL; from tissue; host or cells: pooled human liver microsomes
T2 sequence (P08684 whole entry): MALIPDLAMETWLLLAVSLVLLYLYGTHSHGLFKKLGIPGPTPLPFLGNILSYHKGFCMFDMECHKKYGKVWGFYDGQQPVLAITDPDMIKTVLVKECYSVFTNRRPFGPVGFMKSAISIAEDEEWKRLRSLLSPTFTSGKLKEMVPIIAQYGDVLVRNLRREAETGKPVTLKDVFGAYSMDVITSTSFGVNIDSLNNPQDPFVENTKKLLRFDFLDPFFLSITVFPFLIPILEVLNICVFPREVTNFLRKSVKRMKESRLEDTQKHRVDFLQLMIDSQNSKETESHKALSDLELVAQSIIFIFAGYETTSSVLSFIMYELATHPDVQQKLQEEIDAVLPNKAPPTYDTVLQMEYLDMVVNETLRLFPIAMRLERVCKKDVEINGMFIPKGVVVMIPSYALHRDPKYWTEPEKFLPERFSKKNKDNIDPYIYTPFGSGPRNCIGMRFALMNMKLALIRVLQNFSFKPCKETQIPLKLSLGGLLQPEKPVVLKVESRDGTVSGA
Excerpt: as §1, §2, §3, §4

[7] = target: T3, CYP2C19 (Homo sapiens, UniProt P33261); assay: CYP inhibition test, 4′-hydroxylation of mephenyloin; type: in vitro ADME; settings: pooled human liver microsome; one of 5 kinds
T3 construct: enzyme: pooled human liver microsome 0.2 mg protein/mL; from tissue; host or cells: pooled human liver microsomes
T3 sequence (P33261 whole entry): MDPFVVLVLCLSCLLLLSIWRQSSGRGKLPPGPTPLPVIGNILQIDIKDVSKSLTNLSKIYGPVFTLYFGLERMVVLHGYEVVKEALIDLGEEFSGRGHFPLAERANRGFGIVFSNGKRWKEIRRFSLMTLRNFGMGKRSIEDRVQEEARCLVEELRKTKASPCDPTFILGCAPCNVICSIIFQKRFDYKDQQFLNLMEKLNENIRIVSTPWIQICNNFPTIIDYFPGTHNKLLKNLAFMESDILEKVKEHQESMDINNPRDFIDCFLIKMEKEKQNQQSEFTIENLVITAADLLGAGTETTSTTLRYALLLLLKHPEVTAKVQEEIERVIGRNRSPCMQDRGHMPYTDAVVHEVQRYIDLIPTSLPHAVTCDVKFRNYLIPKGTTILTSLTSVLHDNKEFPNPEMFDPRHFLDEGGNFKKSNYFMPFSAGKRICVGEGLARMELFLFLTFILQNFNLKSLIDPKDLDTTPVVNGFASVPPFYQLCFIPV
Excerpt: as §1, §2, §3, §4

[8] = target: T4, CYP2D6 (Homo sapiens, UniProt P10635); assay: CYP inhibition test, O-demethylation of dextromethorphan; type: in vitro ADME; settings: pooled human liver microsome; one of 5 kinds
T4 construct: enzyme: pooled human liver microsome 0.2 mg protein/mL; from tissue; host or cells: pooled human liver microsomes
T4 sequence (P10635 whole entry): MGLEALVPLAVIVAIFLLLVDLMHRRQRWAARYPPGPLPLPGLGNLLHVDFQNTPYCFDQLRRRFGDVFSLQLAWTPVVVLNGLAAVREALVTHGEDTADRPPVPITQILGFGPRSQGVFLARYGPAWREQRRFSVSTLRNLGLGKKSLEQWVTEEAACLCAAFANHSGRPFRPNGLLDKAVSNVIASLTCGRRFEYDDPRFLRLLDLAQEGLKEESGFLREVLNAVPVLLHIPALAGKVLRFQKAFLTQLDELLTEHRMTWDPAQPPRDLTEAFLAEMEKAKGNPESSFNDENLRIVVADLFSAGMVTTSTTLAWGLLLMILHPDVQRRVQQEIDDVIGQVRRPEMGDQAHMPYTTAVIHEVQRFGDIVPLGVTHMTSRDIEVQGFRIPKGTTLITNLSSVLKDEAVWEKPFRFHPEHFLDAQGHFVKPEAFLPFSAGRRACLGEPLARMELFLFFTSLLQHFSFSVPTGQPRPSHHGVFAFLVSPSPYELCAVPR
Excerpt: as §1, §2, §3, §4

[9] = target: T5, CYP1A2 (Homo sapiens, UniProt P05177); assay: CYP inhibition test, O-de-ethylation of 7-ethoxyresorufin; type: in vitro ADME; settings: pooled human liver microsome; one of 5 kinds
T5 construct: enzyme: pooled human liver microsome 0.2 mg protein/mL; from tissue; host or cells: pooled human liver microsomes
T5 sequence (P05177 1-516): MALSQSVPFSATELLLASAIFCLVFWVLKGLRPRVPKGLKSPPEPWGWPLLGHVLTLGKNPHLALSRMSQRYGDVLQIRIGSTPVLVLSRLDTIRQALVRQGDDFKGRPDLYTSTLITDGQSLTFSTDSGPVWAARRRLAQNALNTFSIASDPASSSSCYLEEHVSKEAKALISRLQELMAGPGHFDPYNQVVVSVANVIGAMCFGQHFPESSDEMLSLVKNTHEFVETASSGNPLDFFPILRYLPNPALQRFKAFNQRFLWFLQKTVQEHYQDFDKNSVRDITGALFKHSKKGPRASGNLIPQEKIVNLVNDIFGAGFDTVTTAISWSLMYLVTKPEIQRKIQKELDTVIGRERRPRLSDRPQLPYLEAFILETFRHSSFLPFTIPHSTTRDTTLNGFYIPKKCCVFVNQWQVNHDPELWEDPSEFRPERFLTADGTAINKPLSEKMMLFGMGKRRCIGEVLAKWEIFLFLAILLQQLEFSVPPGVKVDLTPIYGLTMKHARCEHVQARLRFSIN
Excerpt: as §1, §2, §3, §4

[10] = target: T6, human ether-a-go-go related gene (hERG) channel (Homo sapiens, UniProt Q12809); assay: hERG test, whole-cell patch-clamp, IKr; type: cell-based; settings: 1 μmol/L compound; HEK293 cell expressing hERG
T6 construct: expressed in transfected cells; host or cells: HEK293
T6 sequence (Q12809 whole entry): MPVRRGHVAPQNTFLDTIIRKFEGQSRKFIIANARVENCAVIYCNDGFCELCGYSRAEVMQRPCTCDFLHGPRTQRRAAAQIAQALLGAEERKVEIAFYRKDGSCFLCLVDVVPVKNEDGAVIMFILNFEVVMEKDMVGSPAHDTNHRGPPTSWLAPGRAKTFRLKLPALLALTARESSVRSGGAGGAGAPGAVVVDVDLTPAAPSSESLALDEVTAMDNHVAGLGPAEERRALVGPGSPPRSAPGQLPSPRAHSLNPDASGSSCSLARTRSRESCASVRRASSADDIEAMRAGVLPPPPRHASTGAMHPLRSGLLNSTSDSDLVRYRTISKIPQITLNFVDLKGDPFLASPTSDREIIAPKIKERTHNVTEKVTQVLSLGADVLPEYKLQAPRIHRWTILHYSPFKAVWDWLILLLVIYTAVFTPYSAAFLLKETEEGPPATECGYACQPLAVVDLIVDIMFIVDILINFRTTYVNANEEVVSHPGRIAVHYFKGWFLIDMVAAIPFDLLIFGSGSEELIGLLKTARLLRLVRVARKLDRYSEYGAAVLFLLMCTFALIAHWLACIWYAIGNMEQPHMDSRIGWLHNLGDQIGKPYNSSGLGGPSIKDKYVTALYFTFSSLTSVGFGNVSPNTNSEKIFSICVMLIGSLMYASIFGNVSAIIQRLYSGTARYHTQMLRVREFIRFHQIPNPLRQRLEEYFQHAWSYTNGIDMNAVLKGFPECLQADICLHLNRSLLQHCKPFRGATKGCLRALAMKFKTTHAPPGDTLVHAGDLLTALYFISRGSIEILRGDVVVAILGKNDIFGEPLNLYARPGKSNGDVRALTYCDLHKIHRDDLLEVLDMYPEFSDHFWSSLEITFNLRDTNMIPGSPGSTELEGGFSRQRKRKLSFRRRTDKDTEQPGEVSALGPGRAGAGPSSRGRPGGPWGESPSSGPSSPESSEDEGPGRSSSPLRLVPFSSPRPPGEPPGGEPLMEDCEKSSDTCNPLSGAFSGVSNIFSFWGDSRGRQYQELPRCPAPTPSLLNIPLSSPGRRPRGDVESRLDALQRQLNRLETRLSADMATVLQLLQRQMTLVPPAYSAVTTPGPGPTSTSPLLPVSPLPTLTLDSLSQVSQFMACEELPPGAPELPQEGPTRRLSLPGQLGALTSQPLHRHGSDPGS
Excerpt: For the purpose of risk evaluation of QT interval extension of electrocardiogram, the activity on delayed rectification K^+ current (IKr), which plays an important role in a cardiac ventricle repolarization process, was examined using the HEK293 cell that was made to express human ether-a-go-go related gene (hERG) channel.
Using an automatic patch-clamp system (PatchXpress 7000A, Axon Instruments Inc.), by a whole-cell patch-clamp method, after the cell was maintained at a membrane potential of −80 mV, IKr induced upon applying depolarizing stimulation of +50 mV for 2 seconds and further applying repolarizing stimulation of −50 mV for 2 seconds was recorded. After generated electric current became stable, a test substance dissolved at an intended concentration in extracellular fluid (137 mmol/L NaCl, 4 mmol/L KCl, 1.8 mmol/L CaCl2.2H2O, 1 mmol/L MgCl2.6H2O, 10 mmol/L glucose, 10 mmol/L HEPES (4-(2-hydroxyethyl)-1-piperazineethanesulfonic acid), pH=7.4) was applied to the cell for 10 minutes under room temperature condition. From the obtained IKr, the absolute value of the maximum tail current was measured using analysis software (DataXpress ver. 1, Molecular Devices Corporation) and the value of the electric current in a maintained membrane potential as baseline. Moreover, an inhibition ratio for the maximum tail current prior to the application of the test substance was calculated and then compared with a group of media-application (0.1% dimethylsulfoxide solution) to evaluate influence of the test substance on IKr.

Sequence of PI-3 kinase γ (P48736 whole entry): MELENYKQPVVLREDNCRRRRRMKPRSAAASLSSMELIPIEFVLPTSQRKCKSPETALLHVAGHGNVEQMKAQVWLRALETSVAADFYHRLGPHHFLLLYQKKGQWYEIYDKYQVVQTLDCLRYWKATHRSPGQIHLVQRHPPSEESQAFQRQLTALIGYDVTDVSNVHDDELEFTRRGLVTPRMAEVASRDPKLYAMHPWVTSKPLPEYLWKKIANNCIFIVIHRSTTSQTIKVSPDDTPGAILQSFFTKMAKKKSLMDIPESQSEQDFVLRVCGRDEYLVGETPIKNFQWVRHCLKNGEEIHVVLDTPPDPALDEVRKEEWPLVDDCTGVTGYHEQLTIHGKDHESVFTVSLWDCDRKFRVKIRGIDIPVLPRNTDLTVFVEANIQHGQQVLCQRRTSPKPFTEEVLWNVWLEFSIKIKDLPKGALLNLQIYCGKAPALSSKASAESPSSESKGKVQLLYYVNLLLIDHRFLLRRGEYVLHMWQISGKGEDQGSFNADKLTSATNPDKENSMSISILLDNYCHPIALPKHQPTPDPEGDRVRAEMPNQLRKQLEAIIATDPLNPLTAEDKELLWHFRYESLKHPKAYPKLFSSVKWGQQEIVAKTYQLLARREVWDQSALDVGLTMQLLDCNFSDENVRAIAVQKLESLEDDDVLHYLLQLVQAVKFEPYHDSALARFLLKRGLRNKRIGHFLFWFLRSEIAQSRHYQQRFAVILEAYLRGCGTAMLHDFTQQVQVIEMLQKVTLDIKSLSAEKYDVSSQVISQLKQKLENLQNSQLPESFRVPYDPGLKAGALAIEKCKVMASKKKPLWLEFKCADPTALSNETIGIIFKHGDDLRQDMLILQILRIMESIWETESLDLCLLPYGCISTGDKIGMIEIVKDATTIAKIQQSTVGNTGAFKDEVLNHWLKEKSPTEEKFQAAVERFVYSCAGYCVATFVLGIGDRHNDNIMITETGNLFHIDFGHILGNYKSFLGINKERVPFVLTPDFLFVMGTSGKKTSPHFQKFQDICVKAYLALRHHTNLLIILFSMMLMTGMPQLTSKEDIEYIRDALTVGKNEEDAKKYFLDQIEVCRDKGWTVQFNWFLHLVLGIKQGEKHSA

Compound	inhibition at 50 µM [1] [%]	mutagenicity [2]	solubility at 16 h [3] [µM]	percentage of test compound remained after reacting for 30 minutes [4] [%]	IC50 [5] [µM]	IC50 [6] [µM]	IC50 [7] [µM]	IC50 [8] [µM]	IC50 [9] [µM]	hERG inhibition ratio for the maximum tail current (IKr) [10] [%]
CC1SC(N2CCOc3cccnc32)=NC1=O (stereo not shown) [Compound I-1]	87	(−)	> 50							
CC1(C)SC(N2CCOc3cccnc32)=NC1=O [Compound I-49]	≥ 95		> 50	90.1	> 20	> 20	> 20	> 20	> 20	
O=C(O)c1cccc(Nc2cnc3c(c2)OCCN3C(=O)Nc2ccccc2)c1 [Compound I-138]		(−)	> 50							11.1
O=C(O)CNC(=O)Nc1cnc2c(c1)OCCN2C(=O)Nc1ccccc1 [Compound I-239]	≥ 95		> 50	100	> 20	> 20	> 20	> 20	> 20	
